Data: patent publication US10111858B2, “Pharmaceutical for prophylaxis or treatment of hypertension” (Daiichi Sankyo Company, Limited, priority 2013, dated 2018)

Assays:
Format in all cases: in vivo, rat
[1] = tested on: Dahl rats (salt-sensitive hypertensive rats); assay: Combined administration of MR antagonist and calcium antagonist: inhibitory action on blood pressure elevation (Example 2); conditions: male Dahl rats, 8% salt diet, oral for 6 weeks, trough on day 41; compound (Ia) 0.1 mg/kg, amlodipine 1 mg/kg, alone or combined; mean±standard error
Description: In a normal group and a control group, 0.5% methyl cellulose solution was orally administered for 6 weeks, and in the other groups, a test substance was orally administered for 6 weeks. The test substance was suspended in 0.5% methyl cellulose solution and administered at a volume of 2 mL/kg. Additionally, in the groups other than the normal group, an 8% salt diet (FR-2 containing 8% NaCl, manufactured by Funabashi Farm Co., Ltd.) was given ad libitum from the start of administration of the test substance. The composition of the groups, the administered test substances [ in parentheses], and the number of rats (n) per group are as follows.
Group 4: amlodipine administration group [amlodipine (1 mg/kg)] n=6

[2] = tested on: Dahl rats (salt-sensitive hypertensive rats); assay: Combined administration of MR antagonist and angiotensin II receptor antagonist: inhibitory action on blood pressure elevation (Example 1); conditions: male Dahl rats, 8% salt diet, oral for 6 weeks, trough on day 42; compound (Ia) 1.0 mg/kg, olmesartan medoxomil 10 mg/kg, alone or combined; mean±standard error
Description: Male Dahl rats (DIS/Eis [Dahl-Iwai S], SPF grade, supplier: Japan SLC, Inc., salt-sensitive hypertensive rats) at 7 weeks of age were divided into groups (6 rats per group).
(§1) In a normal group and a control group, 0.5% methyl cellulose solution was orally administered for 6 weeks, and in the other groups, a test substance was orally administered for 6 weeks. The test substance was suspended in 0.5% methyl cellulose solution and administered at a volume of 2 mL/kg. Additionally, in the groups other than the normal group, an 8% salt diet (FR-2 containing 8% NaCl, manufactured by Funabashi Farm Co., Ltd.) was given ad libitum from the start of administration of the test substance. The composition of the groups and the administered test substances [in parentheses] are as follows.
Group 3: compound (Ia) administration group [compound (Ia) (1.0 mg/kg)]
Group 4: olmesartan medoxomil administration group [olmesartan medoxomil (10 mg/kg)]
Group 5: combined administration group [compound (Ia) (1.0 mg/kg)+olmesartan medoxomil (10 mg/kg)]
The results obtained by measuring systolic blood pressure using a noninvasive sphygmomanometer for rats and mice (BP-98A, Softron Co., Ltd.) during the trough period at the 6th week of administration of the test substance (on day 42 from the start of administration of the test substance) are shown in Table 1 (the values in the table represent mean±standard error).

[3] = tested on: Dahl rats (salt-sensitive hypertensive rats); assay: Combined administration of MR antagonist and diuretic: inhibitory action on proteinuria (Example 3); conditions: male Dahl rats, 8% salt diet, oral for 6 weeks, 24-hour urine collection on day 41; compound (Ia) 0.3 mg/kg, hydrochlorothiazide 1 mg/kg, alone or combined; mean±standard error
Description: (§2) Male Dahl rats (DIS/Eis [Dahl-Iwai S], SPF grade, supplier: Japan SLC, Inc., salt-sensitive hypertensive rats) at 7 weeks of age were divided into groups (6 or 9 rats per group).
as §1, with “groups,” for “groups and”, “the parentheses], and the number of rats (n) per group” for “parentheses]”, “follows. […]” for “follows.”
(§3) Systolic blood pressure was measured by using a noninvasive sphygmomanometer for rats and mice (BP-98A, Softron Co., Ltd.) during the trough period at the 6th week of administration of the test substance (on day 40 from the start of administration of the test substance). In addition, on day 41 from the start of administration of the test substance, urine collection for 24-hour was performed using a metabolic cage (2100-R, Watanabe Isolator Systems Co., Ltd.), and the daily urinary protein excretion per body weight was calculated.

[4] = tested on: Dahl rats (salt-sensitive hypertensive rats); assay: Combined administration of MR antagonist and diuretic: inhibitory action on blood pressure elevation (Example 3); conditions: male Dahl rats, 8% salt diet, oral for 6 weeks, trough on day 40; compound (Ia) 0.3 mg/kg, hydrochlorothiazide 1 mg/kg, alone or combined; mean±standard error
Description: as §2
as §1, with “groups,” for “groups and”, “the parentheses], and the number of rats (n) per group” for “parentheses]”, “follows. […]” for “follows.”
as §3

SMILES	Systolic blood pressure [1] [mmHg]	Systolic blood pressure [2] [mmHg]	Daily urinary protein excretion [3] [mg/kg/day]	Systolic blood pressure [4] [mmHg]
Cc1c(C(=O)Nc2ccc(S(C)(=O)=O)cc2)cn(CCO)c1-c1ccccc1C(F)(F)F (atropisomer, axis not shown) [compound (Ia), (S)-1-(2-hydroxyethyl)-4-methyl-N-[4-(methylsulfonyl)phenyl]-5-[2-(trifluoromethyl)phenyl]-1H-pyrrole-3-carboxamide]	207 ± 7	170 ± 4	190 ± 16	196 ± 7
NS(=O)(=O)c1cc2c(cc1Cl)NCNS2(=O)=O [hydrochlorothiazide, 6-chloro-3,4-dihydro-2H-1,2,4-benzothiadiazine-7-sulfonamide 1,1-dioxide, reference compound]	–	–	320 ± 65	212 ± 3
